Reference: US20240239790A1, “7-Morpholino-1,6-Naphthyridin-5-yl Derivatives and Pharmaceutical Compositions Thereof Useful as DNA-PK Inhibitor” (adMare Therapeutics Society, priority 2021, published 2024)
Like-named read-outs stand apart in the source and are kept apart here.

What was measured:
[1] = test system: pDNA-PK induction in HCT116 tumour spheroids; experiment: Multicellular tumour spheroid + radiation, pDNA-PK (ser2056) inhibition, immunohistochemical endpoint, HCT116; assay type: cell-based; conditions: Homo sapiens, 20 Gy, 20% O2
Outline: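 HCT116 spheroids (~0.5 mm) in MEM/10% FBS, 20% O2, 37° C., pre-incubated 1 h with compound (10 or 5 μM down to 3.5 nM), irradiated 20 Gy, then 2 h further with compound. Cryosections immunostained for pDNA-PK ser2056; EC50 is concentration halving radiation-induced pDNA-PK.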

[2] = Microsomal Stability Assay, mouse liver microsomes; assay type: in vitro ADME; conditions: for microsomal CLint at 0.1 uM: male, CD-1, pH 7.4
Method: (§1) Samples were then mixed and centrifuged. Supernatants were used for HPLC-MS/MS analysis. […] Peak areas corresponding to the test compound were recorded.

[3] = test system: pDNA-PK induction in FaDU tumour spheroids; experiment: Multicellular tumour spheroid + radiation, pDNA-PK (ser2056) inhibition, immunohistochemical endpoint, FaDU; assay type: cell-based; conditions: Homo sapiens, 20 Gy
Method: Multicellular tumour spheroids determination of compound inhibition of pDNA-PK induction following radiation. Tumour spheroids were grown to approximately 0.5 mm in diameter and irradiated with 20 Gy in combination with inhibitor test compounds to determine their potency. Inhibitor concentration for 50% reduction in pDNA-PK induction (IC50) was determined via immunohistochemical staining in spheroid cryosections taken 2 hours following radiation. For cell survival endpoint 8 Gy radiation was used and 3 hours following radiation spheroids were dissociated, counted and plated for colony forming endpoint.
Spheroid+radiation pDNA-PK. Radiation: 20 Gy. Drug: serial dilution 5 or 10 μM down to 3.5 nM (11 wells). Spheroids: 3-6 spheroids per well (300-500 μm diameter). 20% 02 and 5% CO2. 96 well plate format. Endpoint: fluorescent immunostain pDNA-PK ser2056 and image on microscope. Analysis: determine EC50 concentrations that decreases pDNA-PK induction by 50% after irradiation.
Multicellular tumour spheroids were used to determine potency of test compounds in a 3D tissue environment using inhibition of pDNA-PK induction following radiation or cell survival as the endpoint. For the pDNA-PK endpoint HCT116 or FaDU tumour spheroids were grown to approximately 0.5 mm in diameter and irradiated with 20 Gy in combination with inhibitor test compounds to determine their potency. Experiments were carried out in 96 well plates containing 0.7 mls of MEM media containing 10% FBS and 10 mM glucose under 20% O2 & 5% CO2 at 37° C. Following dilution of compounds 1:1000 from DMSO stocks, compounds were serially diluted from 10 μM down to 3.5 nM and 5-10 spheroids added. 96 well plates were constantly stirred to avoid spheroids settling during the course of the experiment. The inhibitor concentration for 50% reduction in pDNA-PK induction (EC50) was determined via immunohistochemical staining in spheroid cryosections taken 2 hours following radiation using anti-pDNA-PK (ser 2056) and fixed immediately in formalin following sectioning. For cell survival endpoint 8 Gy radiation was used and, 3 hours following radiation, spheroids were dissociated, counted and plated for colony forming endpoint. Data presented in the table compound potency as EC50 [μM].

[4] = biological target: T1, DNA-PK phosphorylation at Serine 2056 (Homo sapiens, UniProt P78527); experiment: Cellular Assay for Inhibition of DNA-PK Phosphorylation at Serine 2056 in FaDu cells (sandwich ELISA, neocarzinostatin); assay type: cell-based; conditions: pSer2056 DNA-PK
T1 construct: FaDu cells were purchased from ATCC; host or cells: FaDu
Outline: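 pSer2056 and total DNA-PK were measured by sandwich ELISA in BCA-normalised FaDu lysates. Cells had 1 h compound exposure (0.3% DMSO), then 2 h with 1 μg/mL final neocarzinostatin. IC50 was fitted (variable slope) to % inhibition scaled against NCS-stimulated and DMSO-only controls.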

[5] = biological target: T2, DNA-PK (Homo sapiens, UniProt P78527); experiment: DNA-PK Assay for Biochemical Enzymatic Inhibition (ADP Glo Kinase assay); conditions: DNA-PK enzyme
T2 construct: purchased Invitrogen PR9107A
Outline: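 Human DNA-PK (25 ng) preincubated 15 min with compounds (ten three-fold dilutions) in HEPES pH 7.5, MgCl2, KCl, calf thymus DNA buffer, then substrate 434.4 μM and ATP 64.4 μM (final) for 60 min at room temperature. ADP-Glo luminescence; percent inhibition fitted by four-parameter regression for IC50.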

[6] = test system: pH2AX induction in HCT116 ATM-/- multicellular tumour spheroids; experiment: Prodrug Radiation Sensitization in Multicellular Tumour Spheroids, inhibition of pH2AX induction following radiation; assay type: cell-based; conditions: Homo sapiens, HCT-116, 20 Gy
Outline: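 Endpoint: pH2AX (ser 139) or pDNA-PK (ser 2056) in cryosections fixed 1 or 2 h after 20 Gy, comparing oxygenated outer with hypoxic inner layers. Spheroids of ~0.5 mm (HCT116, FaDu; ATM-deficient cells used) held at 20% or 5% O2, 37 °C, stirred. Prodrug range 3.5 nM–10 μM.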

[7] = Microsomal Stability Assay, human liver microsomes; assay type: in vitro ADME; conditions: human liver microsomes, Example 11; for microsomal CLint at 0.1 uM: both sexes, pH 7.4
Method: as §1

[8] = test system: FaDu cell line; experiment: Prodrug Activation in Hypoxic Stirred Tumour Cell Suspensions; conditions: 10 μM, 4 hours
[9] = test system: FaDu tumour xenograft; experiment: Tumour Growth Delay, FaDu tumour xenograft-bearing animals, compound ± radiation (TGD-ER); assay type: in vivo; conditions: PO
Method: FaDu tumour xenograft-bearing animals were monitored for tumour growth and once average tumour size reached approximately 100-250 mm3, animals were assigned to treatment cohorts using stratified randomization. […]
For BID dosing regimens, at 8 h following the first injection, animals were again administered with test compound at the same dose as their previous administration. Animals were weighed and had tumours measured using calipers three times weekly until the endpoint of maximum tumour volume, 1000 mm3, was reached and animals were euthanized. Tumour volumes were calculated according to the equation L×W^2/2 with the length (mm) being the longer axis of the tumour; in the case that no tumour was palpable, tumour volumes were recorded as 0 mm^3.
Data were calculated as tumour growth normalized to day 0 measurements, with time to tumour doubling determined. Average time to tumour doubling for each group was used to determine a Tumour Growth Delay Enhancement Ratio (TGD-ER): the time to doubling for treatment groups were divided by the time to doubling for irradiation-alone groups to determine group-specific TGD-ER values, and these were assigned scores based on defined response ranges: values>2.5=A, 1-2.5=B, <1=C.

[10] = HCT-116, 2 h, spheroids, Example 8, read-out: Cell line: HCT116 Immunohistochemical endpoint pDNA-PK inhibition EC50
[11] = HCT-116, 2 hours following radiation, Example 9 Study 2, read-out: Spheroid Cell line: HCT116 Immunohistochemical endpoint pDNA-PK inhibition EC50
[12] = HCT-116, Spheroid, Cell Line: HCT115 (so in the source), 2 hours following radiation, Example 7, read-out: EC50, Immunohistochemical endpoint, pDNA-PK inhibition
[13] = mouse liver microsomes 0.1 mg/mL, 0.1 uM compound
[14] = 2 hours following radiation, 20% O2, Example 9 Study 2, read-out: Spheroid Cell line: FaDU Immunohistochemical endpoint pDNA-PK inhibition EC50
[15] = 2 h, spheroids, 20% O2, Example 8, read-out: Cell line: FaDU Immunohistochemical endpoint pDNA-PK inhibition EC50
[16] = neocarzinostatin 1 μg/mL, Table 1
[17] = 5% O2, inner layers, read-out: Prodrug 5% O2 Inner layers EC50
[18] = 5% O2, outer layers, read-out: Prodrug 5% O2 Outer layers EC50
[19] = 20% O2, outer layers, read-out: Prodrug 20% O2 Outer layers EC50
[20] = mouse liver microsomes, Example 11

EC50 [1, 10] [nM] | EC50 [1, 11] [nM] | EC50 [1, 12] [nM] | EC50 [3, 14] [nM] | EC50 [3, 15] [nM] | IC50 [4, 16] [nM] | IC50 ([5]; Table 1) [nM] | SMILES | also measured
1000 to 10000 | 1000 to 10000 | 1000 to 10000 | 500 to 1000 | 500 to 1000 | 100 to 1000 | 1 to 10 | O=C(Nc1ccncc1)[C@H]1CC[C@@H](Oc2nc(N3CCOCC3)cc3ncccc23)CC1 [Compound 154e, (1S,4S)-4-((7-morpholino-1,6-naphthyridin-5-yl)oxy)-N-(pyridin-4-yl)cyclohexane-1-carboxamide] | microsomal CLint at 0.1 uM [2, 13]: > 116 µL/min/mg; Microsomal Stability Mouse % rem. 60 min ([2]; mouse liver microsomes): E (% remaining = 0-25%)
 |  |  |  |  |  |  | CN(C)C(=O)COc1cnc(N[C@H]2CC[C@@H](Oc3nc(N4CCOCC4)cc4ncc(OCc5cnc([N+](=O)[O-])n5C)cc34)CC2)nc1 [LFA114, N,N-Dimethyl-2-[2-[[4-[[3-[(3-methyl-2-nitro-imidazol-4-yl)methoxy]-7-morpholino-1,6-naphthyridin-5-yl]oxy]cyclohexyl]amino]pyrimidin-5-yl]oxy-acetamide] | EC50 [6, 17]: 10 to 500 nM; EC50 [6, 18]: 500 to 1000 nM; EC50 [6, 19]: 1000 to 10000 nM; microsomal CLint at 0.1 uM [2, 20]: > 116 µL/min/mg; Microsomal Stability Mouse % rem. 60 min [2, 20]: E (% remaining = 0-25%); IC50 ([4]; Table 2): 10000 to 30000 nM; microsomal CLint at 0.1 uM [7]: < 116 µL/min/mg; Microsomal Stability Human % rem. 60 min [7]: E (% remaining = 0-25%); Fraction of prodrug converted to active form, Hypoxic 0.2% O2 [8]: A (A is 0.15 to 1); Fraction of prodrug converted to active form, Oxic 5% O2 [8]: B (B is 0.05 to 0.15); IC50 ([5]; Table 2): 10 to 150 nM
500 to 1000 | 500 to 1000 | 500 to 1000 | 1000 to 10000 | 1000 to 10000 | 100 to 1000 | < 0.5 | CN(C)C(=O)COc1cnc(N[C@H]2CC[C@@H](Oc3nc(N4CCOCC4)cc4ncc(Br)cc34)CC2)nc1 [Compound 178, 2-((2-(((1s,4s)-4-((3-bromo-7-morpholino-1,6-naphthyridin-5-yl)oxy)cyclohexyl)amino)pyrimidin-5-yl)oxy)-N,N-dimethylacetamide] | 
 |  |  |  |  |  |  | CC(c1cnc([N+](=O)[O-])n1C)N(c1cnc2cc(N3CCOCC3)nc(O[C@H]3CC[C@@H](Nc4ncc(OCCN5CCN(C)CC5)cn4)CC3)c2c1)S(C)(=O)=O (some centres unmarked) [LFA033, N-[1-(3-Methyl-2-nitro-imidazol-4-yl)ethyl]-N-[5-[4-[[5-[2-(4-methylpiperazin-1-yl)ethoxy]pyrimidin-2-yl]amino]cyclohexoxy]-7-morpholino-1,6-naphthyridin-3-yl]methanesulfonamide] | TGD-ER Range Score ([9]; 50 mpk BID + 10 Gy): C (<1=C)
 |  |  |  |  |  |  | Cn1c(CN(c2cnc3cc(N4CCOCC4)nc(OC4CCC(NC(=O)c5ncccn5)CC4)c3c2)S(C)(=O)=O)cnc1[N+](=O)[O-] (centres unmarked) [LFA016, N-[4-[[3-[(3-Methyl-2-nitro-imidazol-4-yl)methyl-methylsulfonyl-amino]-7-morpholino-1,6-naphthyridin-5-yl]oxy]cyclohexyl]pyrimidine-2-carboxamide] | EC50 [6, 17]: 1000 to 10000 nM; EC50 [6, 18]: 1000 to 10000 nM; EC50 [6, 19]: 10000 to 100000 nM; microsomal CLint at 0.1 uM [2, 20]: < 116 µL/min/mg; Microsomal Stability Mouse % rem. 60 min [2, 20]: G (% remaining = 50-75%); IC50 ([4]; Table 2): 10000 to 30000 nM; microsomal CLint at 0.1 uM [7]: < 116 µL/min/mg; Microsomal Stability Human % rem. 60 min [7]: F (% remaining = 25-50%); Fraction of prodrug converted to active form, Hypoxic 0.2% O2 [8]: C (C is 0.02 to 0.05); Fraction of prodrug converted to active form, Oxic 5% O2 [8]: D (D is 0 to 0.02); IC50 ([5]; Table 2): 10 to 150 nM
1000 to 10000 | 1000 to 10000 | 1000 to 10000 | 500 to 1000 | 500 to 1000 | 100 to 1000 | 0.5 to 1 | COc1ccc(NC(=O)N[C@H]2CC[C@@H](Oc3nc(N4CCOCC4)cc4ncccc34)CC2)cc1 [Compound 152, 1-(4-Methoxyphenyl)-3-((1s,4s)-4-((7-morpholino-1,6-naphthyridin-5-yl)oxy)cyclohexyl)urea] | 
 |  |  |  |  |  |  | CN1CCN(CCOc2cnc(N[C@H]3CC[C@@H](Oc4nc(N5CCOCC5)cc5ncc(NS(C)(=O)=O)cc45)CC3)nc2)CC1 [LFA031, N-[5-[4-[[5-[2-(4-Methylpiperazin-1-yl)ethoxy]pyrimidin-2-yl]amino]cyclohexoxy]-7-morpholino-1,6-naphthyridin-3-yl]methanesulfonamide] | TGD-ER Range Score ([9]; 30 mpk BID + 10 Gy): B (1-2.5=B)
1000 to 10000 | 1000 to 10000 | 1000 to 10000 | 1000 to 10000 | 1000 to 10000 | 1000 to 10000 | < 0.5 | O=C(O)c1cnc2cc(N3CCOCC3)nc(O[C@H]3CC[C@@H](Nc4ncccn4)CC3)c2c1 [Compound 183, 7-morpholino-5-(((1s,4s)-4-(pyrimidin-2-ylamino)cyclohexyl)oxy)-1,6-naphthyridine-3-carboxylic acid] | microsomal CLint at 0.1 uM [2, 13]: < 116 µL/min/mg; Microsomal Stability Mouse % rem. 60 min ([2]; mouse liver microsomes): H (% remaining = 75-100%)
